# Measurements as given in patent US20150175599A1, “FAAH Inhibitors” (Ironwood Pharmaceuticals, Inc., priority 2010, published 2015).
# What was measured:
# FAAH [1] = target: T1, FAAH (Homo sapiens, UniProt O00519); assay: FAAH inhibition, human brain membrane homogenate assay; assay type: biochemical; conditions: human brain homogenate; average activity; read-out: Human brain Extract FAAH IC50
# T1 construct: Reactions were initiated by adding 12.5 μg of brain microsome; tissue ABS, Inc; host or cells: human brain cerebral cortex, membrane/microsome fraction pooled from 3 donors
# T1 sequence (O00519 1-579): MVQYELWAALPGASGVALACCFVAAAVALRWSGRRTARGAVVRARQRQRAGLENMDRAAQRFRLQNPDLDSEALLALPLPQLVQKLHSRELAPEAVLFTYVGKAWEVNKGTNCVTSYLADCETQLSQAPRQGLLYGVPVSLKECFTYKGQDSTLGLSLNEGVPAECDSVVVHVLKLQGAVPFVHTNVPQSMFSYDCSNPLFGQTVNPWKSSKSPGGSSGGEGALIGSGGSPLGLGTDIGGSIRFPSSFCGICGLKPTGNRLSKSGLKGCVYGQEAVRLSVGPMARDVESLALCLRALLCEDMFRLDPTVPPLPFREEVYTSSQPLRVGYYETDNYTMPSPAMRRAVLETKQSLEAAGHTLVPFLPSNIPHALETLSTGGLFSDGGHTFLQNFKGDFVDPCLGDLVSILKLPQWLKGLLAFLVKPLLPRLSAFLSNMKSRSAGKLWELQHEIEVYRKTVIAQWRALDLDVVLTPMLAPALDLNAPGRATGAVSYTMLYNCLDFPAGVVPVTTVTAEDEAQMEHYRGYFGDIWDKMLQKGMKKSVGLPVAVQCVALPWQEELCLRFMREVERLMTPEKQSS
# FAAH [2] = target: T2, FAAH (Rattus norvegicus, UniProt P97612); assay: FAAH inhibition, rat brain membrane homogenate assay; assay type: biochemical; conditions: rat brain homogenate; average activity; read-out: Rat Brain Extract FAAH IC50
# T2 construct: For the assay of FAAH activity in rat brain membrane (RBM) homogenates; tissue Charles River (animals); host or cells: rat whole brain, membrane fraction
# T2 sequence (P97612 1-579): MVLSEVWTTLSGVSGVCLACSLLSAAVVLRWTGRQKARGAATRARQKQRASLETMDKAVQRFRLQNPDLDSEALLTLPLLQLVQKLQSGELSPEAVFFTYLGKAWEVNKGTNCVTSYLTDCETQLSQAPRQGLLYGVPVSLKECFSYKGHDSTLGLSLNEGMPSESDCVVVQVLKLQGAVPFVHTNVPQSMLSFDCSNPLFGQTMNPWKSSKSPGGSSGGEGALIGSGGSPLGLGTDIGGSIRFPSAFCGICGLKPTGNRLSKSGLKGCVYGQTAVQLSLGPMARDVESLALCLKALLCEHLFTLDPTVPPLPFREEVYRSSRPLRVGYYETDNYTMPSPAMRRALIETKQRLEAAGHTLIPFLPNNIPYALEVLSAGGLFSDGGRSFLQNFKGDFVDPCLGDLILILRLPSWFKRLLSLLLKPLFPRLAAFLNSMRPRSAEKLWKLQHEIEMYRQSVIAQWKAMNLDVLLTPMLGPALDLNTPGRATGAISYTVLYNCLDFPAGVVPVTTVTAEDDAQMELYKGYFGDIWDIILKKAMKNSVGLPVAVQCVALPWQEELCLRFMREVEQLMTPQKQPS
# In short: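 Membranes from female CD rat brain (Tris pH 7.4/EDTA/MgCl2 resuspension), 7 μg protein, incubated 10 min at 37 °C with [3H]anandamide plus […] unlabelled AEA, 1 mg/mL fatty acid-free BSA, Tris-HCl pH 6.5, 1 mM EDTA, 1% DMSO. [3H]ethanolamine separated by chloroform/methanol extraction or charcoal filtration, scintillation-counted; IC50 derived.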
Compound,IC50 (FAAH [1]) [nM],IC50 (FAAH [2]) [nM]
"COc1ccc2c(c1)c(C(=O)C(=O)Nc1ccnc(OC)c1)c(C)n2Cc1ncccn1 [Compound 83, 2-(5-methoxy-2-methyl-1-(pyrimidin-2-ylmethyl)-1H-indol-3-yl)-N-(2-methoxypyridin-4-yl)-2-oxoacetamide]",1000 to 10000,1000 to 10000
"COc1ccc2c(c1)c(C(=O)C(=O)Nc1ccnc(OC)c1)c(C)n2Cc1ccc(Cl)cn1 [Compound 79, 2-(1-((5-chloropyridin-2-yl)methyl)-5-methoxy-2-methyl-1H-indol-3-yl)-N-(2-methoxypyridin-4-yl)-2-oxoacetamide]",< 100,< 100
"COc1ccc2c(c1)c(C(=O)C(=O)Nc1ccnc(OC)c1)c(C)n2Cc1ncc(F)cc1F [Compound 81, 2-(1-((3,5-difluoropyridin-2-yl)methyl)-5-methoxy-2-methyl-1H-indol-3-yl)-N-(2-methoxypyridin-4-yl)-2-oxoacetamide]",< 100,< 100
"COc1cc(NC(=O)C(=O)c2c(C)n(Cc3ccc(Cl)cc3)c3cc(F)c(C)cc23)ccn1 [Compound 89, 2-(1-(4-chlorobenzyl)-6-fluoro-2,5-dimethyl-1H-indol-3-yl)-N-(2-methoxypyridin-4-yl)-2-oxoacetamide]",< 100,< 100
"COc1cc(NC(=O)C(=O)c2c(C)n(Cc3ccc(Cl)cc3)c3ccc(C(=O)O)cc23)ccn1 [Compound 4, 1-(4-chlorobenzyl)-3-(2-(2-methoxypyridin-4-ylamino)-2-oxoacetyl)-2-methyl-1H-indole-5-carboxylic acid]",1000 to 10000,1000 to 10000
"COc1ccc2c(c1)c(C(=O)C(=O)Nc1ccnc(OC)c1)c(C)n2Cc1cccnc1 [Compound 78, 2-(5-methoxy-2-methyl-1-(pyridin-3-ylmethyl)-1H-indol-3-yl)-N-(2-methoxypyridin-4-yl)-2-oxoacetamide]",100 to 1000,100 to 1000
"COc1cc(NC(=O)C(=O)c2c(C)n(Cc3ccc(Cl)cc3F)c3cc(F)c(OC)cc23)ccn1 [Compound 91, 2-(1-(4-chloro-2-fluorobenzyl)-6-fluoro-5-methoxy-2-methyl-1H-indol-3-yl)-N-(2-methoxypyridin-4-yl)-2-oxoacetamide]",< 100,< 100
"COc1ccc2c(c1)c(C(=O)C(=O)Nc1ccnc(OC)c1)c(C)n2Cc1ncc(Cl)cc1F [Compound 87, 2-(1-((5-chloro-3-fluoropyridin-2-yl)methyl)-5-methoxy-2-methyl-1H-indol-3-yl)-N-(2-methoxypyridin-4-yl)-2-oxoacetamide]",< 100,< 100
"COc1cc(NC(=O)C(=O)c2c(C)n(Cc3ccc(Cl)cn3)c3cc(Cl)c(C)cc23)ccn1 [Compound 94, 2-(6-chloro-1-((5-chloropyridin-2-yl)methyl)-2,5-dimethyl-1H-indol-3-yl)-N-(2-methoxypyridin-4-yl)-2-oxoacetamide]",< 100,< 100
"COc1cc(NC(=O)C(=O)c2c(C)n(Cc3ccc(Cl)cc3)c3cc(Cl)c(C)cc23)ccn1 [Compound 93, 2-(6-chloro-1-(4-chlorobenzyl)-2,5-dimethyl-1H-indol-3-yl)-N-(2-methoxypyridin-4-yl)-2-oxoacetamide]",< 100,< 100
"COc1ccc2c(c1)c(C(=O)C(=O)Nc1ccnc(OC)c1)c(C)n2Cc1ccc(C)cn1 [Compound 84, 2-(5-methoxy-2-methyl-1-((5-methylpyridin-2-yl)methyl)-1H-indol-3-yl)-N-(2-methoxypyridin-4-yl)-2-oxoacetamide]",< 100,< 100
"COc1cc(NC(=O)C(=O)c2c(C)n(Cc3ccc(Cl)cc3)c3cc(OC)c(Cl)cc23)ccn1 [Compound 80, 2-(5-chloro-1-(4-chlorobenzyl)-6-methoxy-2-methyl-1H-indol-3-yl)-N-(2-methoxypyridin-4-yl)-2-oxoacetamide]",< 100,< 100
"COc1cc(NC(=O)C(=O)c2c(C)n(Cc3ccc(Cl)cn3)c3cc(F)c(C)cc23)ccn1 [Compound 90, 2-(1-((5-chloropyridin-2-yl)methyl)-6-fluoro-2,5-dimethyl-1H-indol-3-yl)-N-(2-methoxypyridin-4-yl)-2-oxoacetamide]",< 100,< 100
"COc1ccc2c(c1)c(C(=O)C(=O)Nc1ccnc(OC)c1)c(C)n2Cc1ncc(Cl)cc1Cl [Compound 82, 2-(1-((3,5-dichloropyridin-2-yl)methyl)-5-methoxy-2-methyl-1H-indol-3-yl)-N-(2-methoxypyridin-4-yl)-2-oxoacetamide]",< 100,< 100
"COc1cc(NC(=O)C(=O)c2c(C)n(Cc3ccc(Cl)cc3)c3cccnc23)ccn1 [Compound 3, 2-(1-(4-chlorobenzyl)-2-methyl-1H-pyrrolo[3,2-b]pyridin-3-yl)-N-(2-methoxypyridin-4-yl)-2-oxoacetamide]",< 100,< 100
"COc1ccc2c(c1)c(C(=O)C(=O)Nc1ccnc(OC)c1)c(C)n2Cc1ccc(Cl)nn1 [Compound 86, 2-(1-((6-chloropyridazin-3-yl)methyl)-5-methoxy-2-methyl-1H-indol-3-yl)-N-(2-methoxypyridin-4-yl)-2-oxoacetamide]",< 100,< 100
"COc1cc(NC(=O)C(=O)c2c(C)n(Cc3ccc(F)cn3)c3ccc(C)cc23)ccn1 [Compound 85, 2-(1-((5-fluoropyridin-2-yl)methyl)-2,5-dimethyl-1H-indol-3-yl)-N-(2-methoxypyridin-4-yl)-2-oxoacetamide]",< 100,< 100
"COc1cc(NC(=O)C(=O)c2c(C)n(Cc3ccc(Cl)cc3Cl)c3cc(F)c(OC)cc23)ccn1 [Compound 92, 2-(1-(2,4-dichlorobenzyl)-6-fluoro-5-methoxy-2-methyl-1H-indol-3-yl)-N-(2-methoxypyridin-4-yl)-2-oxoacetamide]",< 100,< 100
